Reference: patent US20220125898A1, “PAR2 MODULATION AND METHODS THEREOF” (JANSSEN BIOTECH, INC., priority 2019, published 2022)
Changes are numbered by the printed parent chain.

How the values were obtained:
[1] = system: HEK293 cells with par1 and par2 knocked-out; assay: FLIPR characterization of par1 and par2 knock-out HEK293 cells; format: cell-based, human
From the text: A PAR1, PAR2 knock-out HEK293 cell line was created by Applied StemCells (Milpitas, Calif.) using a CRISPR/Cas9 approach. Briefly, the coding region (nucleotide 374-643) of PAR1, which encodes the protein region transmembrane region 2 (TM2) to transmembrane region 3 (TM3) of PAR1, was deleted. Similarly, the coding region (281-627) of PAR2, which encodes the protein region TM2 to TM3 of PAR2, was deleted. Single cell clones were isolated. PCR analysis of the genomic DNA followed by DNA sequencing was used to confirm the deletion of the DNA fragments.
FLIPR-Tetra (Molecular Device, San Jose, Calif.) was used to monitor intracellular Ca^2+ mobilization in HEK293 cells, HEK293 cells with PAR1 and PAR2 knocked-out, and cells transiently transfected with various PAR2 expression constructs. Cells were grown in 96-well polyD-lysine coated black FLIPR plates (Corning) in DMEM supplemented with 10% FCS, 1 mM pyruvate, 20 mM HEPES, at 37° C. with 5% CO2. For transient transfection, cells were grown in 96-well polyD-lysine coated black FLIPR plates and transfected using FuGENE HD (Promega, Madison, Wis.) as the transfection reagent according to the manufacturer's instructions. […] Intracellular Ca^2+ mobilization stimulated by various concentrations of ligands (trypsin, or peptide ligand) was monitored by FLIPR-Tetra as described (Liu et al., Mol. Pharmacol. 88:911-25 (2015)). […]

[2] = biological target: Human PAR2 wild type, recombinantly expressed in HEK293 cells with par1 and par2 knocked-out (human) (UniProt P55085); assay: cell-based or functional assay
[3] = biological target: PAR2 with the signal peptide deleted (PAR2ΔSP) (human) (UniProt P55085); assay: cell-based or functional assay
[4] = biological target: PAR2 endogenously expressed in HEK293 cells (human) (UniProt P55085); assay: cell-based or functional assay
PAR2(R36A) = biological target: T1, PAR2(R36A) (Homo sapiens, UniProt P55085, R36A); assay: FLIPR intracellular Ca2+ mobilization, full length PAR2 with Arg36Ala mutation; format: cell-based
T1 construct: expressed in transfected cells; host or cells: HEK293 cells with par1 and par2 knocked out, transient
T1 sequence (P55085 26-397 R36A): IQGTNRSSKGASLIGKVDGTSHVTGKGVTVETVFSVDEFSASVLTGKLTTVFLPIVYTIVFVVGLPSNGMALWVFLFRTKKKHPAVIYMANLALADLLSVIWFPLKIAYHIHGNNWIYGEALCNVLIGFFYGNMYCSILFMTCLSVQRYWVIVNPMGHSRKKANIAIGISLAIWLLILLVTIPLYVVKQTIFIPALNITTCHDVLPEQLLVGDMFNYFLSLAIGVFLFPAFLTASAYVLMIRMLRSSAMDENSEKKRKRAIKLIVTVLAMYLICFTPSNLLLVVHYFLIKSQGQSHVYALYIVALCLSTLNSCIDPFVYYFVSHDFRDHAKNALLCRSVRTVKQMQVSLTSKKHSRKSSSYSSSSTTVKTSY
Protocol: (§1) FLIPR-Tetra (Molecular Device, San Jose, Calif.) was used to monitor intracellular Ca^2+ mobilization in HEK293 cells, HEK293 cells with PAR1 and PAR2 knocked-out, and cells transiently transfected with various PAR2 expression constructs. Cells were grown in 96-well polyD-lysine coated black FLIPR plates (Corning) in DMEM supplemented with 10% FCS, 1 mM pyruvate, 20 mM HEPES, at 37° C. with 5% CO2. For transient transfection, cells were grown in 96-well polyD-lysine coated black FLIPR plates and transfected using FuGENE HD (Promega, Madison, Wis.) as the transfection reagent according to the manufacturer's instructions. For samples treated with protease inhibitors, protease cocktail was added to cell culture one day after transfection and incubated overnight. Two days after transfection, cell culture media were removed, and cells were washed using HMS buffer plus 20 mM HEPES. Ca^2+ dye (Flura 3) diluted in HMS buffer plus 20 mM HEPES was used to incubate cells at RT for 40 minutes to allow Ca^2+ to enter cells. […] The untransfected cells were used as negative controls.

PAR2ΔSP = biological target: T2, PAR2ΔSP (Homo sapiens, UniProt P55085); assay: FLIPR intracellular Ca2+ mobilization, PAR2 without signal peptide in par1/par2 knock-out HEK293; format: cell-based; details: PAR2 without its signal peptide
T2 construct: expressed in transfected cells; host or cells: HEK293 cells with par1 and par2 knocked out, transient, pcDNA3.1
T2 sequence (P55085 with tags, fused parts or gaps): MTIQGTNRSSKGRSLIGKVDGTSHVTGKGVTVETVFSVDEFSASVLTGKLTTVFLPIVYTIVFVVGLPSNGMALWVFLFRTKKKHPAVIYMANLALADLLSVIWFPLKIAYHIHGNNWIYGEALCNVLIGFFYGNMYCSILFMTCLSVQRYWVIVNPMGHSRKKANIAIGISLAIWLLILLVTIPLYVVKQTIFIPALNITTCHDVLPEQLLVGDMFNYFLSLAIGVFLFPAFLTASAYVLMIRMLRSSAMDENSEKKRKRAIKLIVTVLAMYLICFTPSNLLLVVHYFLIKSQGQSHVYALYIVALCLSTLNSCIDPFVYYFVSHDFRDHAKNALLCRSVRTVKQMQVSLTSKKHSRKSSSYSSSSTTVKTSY
Protocol: FLIPR-Tetra (Molecular Device, San Jose, Calif.) was used to monitor intracellular Ca^2+ mobilization in HEK293 cells, HEK293 cells with PAR1 and PAR2 knocked-out, and cells transiently transfected with various PAR2 expression constructs. Cells were grown in 96-well polyD-lysine coated black FLIPR plates (Corning) in DMEM supplemented with 10% FCS, 1 mM pyruvate, 20 mM HEPES, at 37° C. with 5% CO2. For transient transfection, cells were grown in 96-well polyD-lysine coated black FLIPR plates and transfected using FuGENE HD (Promega, Madison, Wis.) as the transfection reagent according to the manufacturer's instructions. For samples treated with protease inhibitors, protease cocktail was added to cell culture one day after transfection and incubated overnight. Two days after transfection, cell culture media were removed, and cells were washed using HMS buffer plus 20 mM HEPES. Ca^2+ dye (Flura 3) diluted in HMS buffer plus 20 mM HEPES was used to incubate cells at RT for 40 minutes to allow Ca^2+ to enter cells. Intracellular Ca^2+ mobilization stimulated by various concentrations of ligands (trypsin, or peptide ligand) was monitored by FLIPR-Tetra as described (Liu et al., Mol. Pharmacol. 88:911-25 (2015)). The untransfected cells were used as negative controls. […]

PAR2ΔSPΔL = biological target: T3, PAR2ΔSPΔL (Homo sapiens, UniProt P55085); assay: FLIPR intracellular Ca2+ mobilization, PAR2 without signal peptide and tethered ligand; format: cell-based
T3 construct: expressed in transfected cells; host or cells: HEK293 cells with par1 and par2 knocked out, transient
T3 sequence (P55085 with tags, fused parts or gaps): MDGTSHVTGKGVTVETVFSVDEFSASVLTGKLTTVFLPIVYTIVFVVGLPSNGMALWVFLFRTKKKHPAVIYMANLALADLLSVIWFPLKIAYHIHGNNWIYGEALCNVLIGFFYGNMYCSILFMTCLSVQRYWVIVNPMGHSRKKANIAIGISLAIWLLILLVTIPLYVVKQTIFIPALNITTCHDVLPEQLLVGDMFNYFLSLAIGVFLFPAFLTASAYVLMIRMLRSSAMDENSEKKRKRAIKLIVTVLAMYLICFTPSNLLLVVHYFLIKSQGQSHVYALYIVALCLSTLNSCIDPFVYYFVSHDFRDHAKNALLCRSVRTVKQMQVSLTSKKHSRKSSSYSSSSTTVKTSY
Protocol: as §1

[5] = biological target: T4, recombinantly expressed PAR2 (Homo sapiens, UniProt P55085); assay: FLIPR intracellular Ca2+ mobilization, recombinant wild type PAR2 transiently expressed in par1/par2 knock-out HEK293; format: cell-based
T4 construct: was used to amplify the full length PAR2 cDNA coding region; expressed in transfected cells; host or cells: HEK293 cells with par1 and par2 knocked out, transient, pcDNA3.1
T4 sequence (P55085 26-397): T1 sequence (P55085 26-397 R36A) with A11R
Protocol: (§2) FLIPR-Tetra (Molecular Device, San Jose, Calif.) was used to monitor intracellular Ca^2+ mobilization in HEK293 cells, HEK293 cells with PAR1 and PAR2 knocked-out, and cells transiently transfected with various PAR2 expression constructs. Cells were grown in 96-well polyD-lysine coated black FLIPR plates (Corning) in DMEM supplemented with 10% FCS, 1 mM pyruvate, 20 mM HEPES, at 37° C. with 5% CO2. For transient transfection, cells were grown in 96-well polyD-lysine coated black FLIPR plates and transfected using FuGENE HD (Promega, Madison, Wis.) as the transfection reagent according to the manufacturer's instructions. For samples treated with protease inhibitors, protease cocktail was added to cell culture one day after transfection and incubated overnight. Two days after transfection, cell culture media were removed, and cells were washed using HMS buffer plus 20 mM HEPES. Ca^2+ dye (Flura 3) diluted in HMS buffer plus 20 mM HEPES was used to incubate cells at RT for 40 minutes to allow Ca^2+ to enter cells. Intracellular Ca^2+ mobilization stimulated by various concentrations of ligands (trypsin, or peptide ligand) was monitored by FLIPR-Tetra as described (Liu et al., Mol. Pharmacol. 88:911-25 (2015)). The untransfected cells were used as negative controls.

[6] = biological target: T5, endogenously expressed PAR2 in HEK293 cells (Homo sapiens, UniProt P55085); assay: FLIPR intracellular Ca2+ mobilization, wild type HEK293 cells; format: cell-based; details: endogenous PAR2, HEK293 cells
T5 construct: the endogenously expressed PAR2 in HEK293 cells; endogenous in cells; host or cells: wild type HEK293 cells
T5 sequence (P55085 26-397): T1 sequence (P55085 26-397 R36A) with A11R
Protocol: as §2

PAR2ΔSP(R36A) = biological target: T6, PAR2ΔSP(R36A) (Homo sapiens, UniProt P55085, R36A); assay: FLIPR intracellular Ca2+ mobilization, signal peptide-less PAR2 with Arg36Ala mutation; format: cell-based
T6 construct: expressed in transfected cells; host or cells: HEK293 cells with par1 and par2 knocked out, transient
T6 sequence (P55085 with tags, fused parts or gaps R36A): T2 sequence (P55085 with tags, fused parts or gaps) with R13A
Protocol: as §1

[7] = biological target: T7, PAR2 with the signal peptide deleted (PAR2ΔSP) (human, UniProt P55085 37-397); assay: cell-based or functional assay
T7 sequence: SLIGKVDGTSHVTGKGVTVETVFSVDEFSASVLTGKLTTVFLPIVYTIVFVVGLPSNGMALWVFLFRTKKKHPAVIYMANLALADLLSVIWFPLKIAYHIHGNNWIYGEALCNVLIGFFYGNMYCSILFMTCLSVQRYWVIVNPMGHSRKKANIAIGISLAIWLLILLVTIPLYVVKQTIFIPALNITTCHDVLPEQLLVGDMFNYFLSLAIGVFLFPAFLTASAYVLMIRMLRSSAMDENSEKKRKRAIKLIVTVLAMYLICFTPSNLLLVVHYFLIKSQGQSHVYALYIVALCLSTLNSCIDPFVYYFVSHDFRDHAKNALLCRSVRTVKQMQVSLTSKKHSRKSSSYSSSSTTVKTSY

[8] = biological target: T8, PAR2 endogenously expressed in HEK293 cells (human, UniProt P55085 37-397); assay: cell-based or functional assay
T8 sequence (looked up): T7 sequence

[9] = biological target: T9, Human PAR2 wild type, recombinantly expressed in HEK293 cells with par1 and par2 knocked-out (human, UniProt P55085 37-397); assay: cell-based or functional assay
T9 sequence: T7 sequence

Molecule: thrombin
- response of knock-out cells to ligand [1]: lack of response

Molecule: Trypsin (sequencing grade) (enzyme)
- EC50, FLIPR intracellular Ca2+ mobilization [2]: 1.5 nM
- EC50, FLIPR intracellular Ca2+ mobilization [3]: 50 nM
- EC50, FLIPR intracellular Ca2+ mobilization [4]: 10 nM

Molecule: trypsin
- receptor response to ligand stimulation in FLIPR assay (PAR2(R36A)): very poorly
- EC50 (PAR2ΔSP): 50 nM
- receptor activation in FLIPR assay (PAR2ΔSPΔL): not activated
- response of knock-out cells to ligand [1]: lack of response
- EC50 [5]: 1.5 nM
- EC50 [6]: 10 nM
- receptor response to ligand stimulation in FLIPR assay (PAR2ΔSP(R36A)): blocked

Molecule: SLIGKV [PAR2 agonist peptide ligand, SLIGKV]
- EC50, FLIPR intracellular Ca2+ mobilization [7]: 5800 nM
- EC50, FLIPR intracellular Ca2+ mobilization, cells treated with protease inhibitor cocktail [7]: 700 nM
- EC50, FLIPR intracellular Ca2+ mobilization [8]: 1500 nM
- EC50, FLIPR intracellular Ca2+ mobilization [9]: 50 nM
